Converted amounts (≈) assume the structure as drawn. Non-standard residues stand in square brackets, D forms with d. Residues, ends and D or L forms follow the SMILES beside them. Dip = N[C@H](C(=O)O)C(c1ccccc1)c1ccccc1
Assays:
[1] = tested on: P. aeruginosa (ATCC 27883); assay: microbe, parasite or virus in culture; type: cell-based, Pseudomonas aeruginosa; conditions: ATCC 27883, 24 h
Protocol: (§1) The antibacterial activity of all ten synthesized linear and cyclic peptides was evaluated against MRSA (ATCC BAA-1556), S. aureus (ATCC 29213), E. faecium (ATCC 700221), S. pneumoniae (ATCC 51938), E. faecalis (ATCC 29212), B. subtilis (ATCC-6633), K. pneumoniae (ATCC BAA-1705), P. aeruginosa (ATCC 27883), and E. coli (ATCC 25922). Meropenem and daptomycin were used as positive controls for this study. Certain peptides are marked as “NT” (not tested) against specific bacterial strains based on initial screening data. […] The MIC was determined by micro-broth dilution protocol, where the minimal concentrations were determined to be in wells with no visible bacterial growth.
(§2) All bacterial experiments were carried out in a laminar flow hood (Labconco, Kansas City, MO, USA). The bacterial strains were cultured following the guidelines set by the Clinical Laboratory Standards Institute (CLSI). Antibacterial assays were performed using a standard microtiter dilution method as described in previous studies. The minimum inhibitory concentration (MIC) refers to the lowest peptide concentration that inhibits bacterial growth in wells with no visible bacterial growth. MIC was determined by micro-broth dilution. Bacteria were cultured overnight in 6 mL of Luria Broth (LB). A stock solution of the peptide was prepared in water and DMSO, and a test compound solution with a concentration of 256 µg/mL was made in LB. Meropenem, with a solubility of 8 mg/mL, was prepared as a stock solution at 4 mg/500 µL. An aliquot of the overnight bacteria culture was diluted in normal saline (NS, 1 mL) until achieving a 0.5 McFarland turbidity (1.5 × 10^8 bacterial cell CFU/mL). A 0.5 McFarland compared solution (60 µL) was added to Mueller Hinton Broth (MH) 8940 µL to generate a 1/150 dilution. A 200 µL test compound solution was added to the first well of a 96-well plate, and the remaining wells (2–12) were filled with 100 µL of MH media using a multi-channel pipette from a sterile reservoir. A concentration of […] of the tested peptides was prepared from a stock solution of the samples for testing in Muller−Hinton broth MH media. Peptides stock solution was dissolved in 5% DMSO in water, and the final concentration of DMSO in the first well of assay plate was 2.5% DMSO/H2O and diluted across the assay plate.
(§3) A 100 µL sample from well 1 was pipetted into well 2, and the solution was mixed thoroughly by pipetting up and down. Next, 100 µL was transferred from well 2 to well 3, followed by thorough mixing. This 2-fold serial dilution process continued through well 11, with no additions made to well 12. The final 100 µL from well 11 was discarded. After completing the serial dilution, each well (1–12) contained 100 µL of solution. The bacterial culture in MH media was vortexed and transferred to a sterile reservoir, from which 100 µL was added to each well using a 12-channel pipette. (Note: The dilutions were further diluted upon adding the bacterial solution; for example, the concentration in well 1 started at […] after the addition of the bacterial culture.) The plates were incubated overnight at 37 °C for 24 h. All experiments were performed in triplicate and repeated twice, with controls consisting of bacteria in MH media and positive controls of daptomycin or meropenem.

[2] = tested on: S. pneumoniae (ATCC 51938); assay: microbe, parasite or virus in culture; type: cell-based, Streptococcus pneumoniae; conditions: ATCC 51938, 24 h
Protocol: as §1, §2, §3

[3] = cited from earlier work
Source text: We hypothesized that these peptides can be used as a broad-spectrum antibiotic and antifungal agents by interacting with bacterial and fungal membranes. The head-to-tail cyclization and incorporation of unnatural amino acids could provide improved stability against degradation in the biological environment. […] For example, we have previously shown the plasma stability of [DipR]5. Approximately 15% degradation of [DipR]5 was observed within the first hour, but the rate of de ...

[4] = tested on: C. parapsilosis (ATCC 22019); assay: microbe, parasite or virus in culture; type: cell-based, Candida parapsilosis; conditions: ATCC 22019, 24 h
Protocol: The antifungal activity of all ten synthesized linear and cyclic peptides was evaluated against C. albicans (ATCC 60193), C. parapsilosis (ATCC 22019), and A. fumigatus (AF-293). Fluconazole and amphotericin B were used as positive controls for this study. The MIC was determined at concentrations in wells with no visible fungal growth.
In this study, C. albicans and C. parapsilosis were cultured on Yeast Peptone Dextrose (YPD) agar containing 1% w/v yeast extract, 2% w/v peptone, 2% w/v D-glucose, and 1.5% agar. A single colony from the agar was selected and cultured in Tryptone soy broth supplemented with 0.1% D-glucose, then incubated for 24 h at 37 °C. The cells were washed twice with PBS by centrifugation at 2000 RPM for 5 min. The pellet was resuspended in 5 mL of PBS, diluted in RPMI 1640 with L-glutamine, supplemented with 2% D-glucose, and the pH adjusted using HEPES buffer. The suspension was then incubated for 50 min at 35 °C to achieve a final cell concentration of 10^6 cells/mL.
Peptide concentrations of 50, 25, 12.5, 6.25, and 3.1 μg/mL were tested in triplicate and repeated twice. Each well of a 96-well plate was inoculated with the prepared inoculum suspension, which was diluted with RPMI media to a final volume of 200 μL per well. The control well received the same inoculum without any compound. The plates were incubated for 24 h at 37 °C. Fungal and microbial growth were visually observed in the control wells, and the minimum inhibitory concentration (MIC) was determined as the lowest concentration at which no growth was detected in the wells. Amphotericin B was used as a standard antifungal drug.

MRSA (ATCC BAA-1556) = assay: microbe, parasite or virus in culture; type: cell-based, Methicillin-Resistant Staphylococcus aureus; conditions: ATCC BAA-1556, 24 h
Protocol: as §1, §2, §3

S. aureus (ATCC 29213) = assay: microbe, parasite or virus in culture; type: cell-based, Staphylococcus aureus; conditions: ATCC 29213, 24 h
Protocol: as §1, §2, §3

[5] = tested on: Gram-positive and Gram-negative bacteria strains; type: cell-based; conditions: span over all bacterial strains tested; micro-broth dilution
Protocol: as §1
(§4) All bacterial experiments were carried out in a laminar flow hood (Labconco, Kansas City, MO, USA). The bacterial strains were cultured following the guidelines set by the Clinical Laboratory Standards Institute (CLSI). Antibacterial assays were performed using a standard microtiter dilution method as described in previous studies. The minimum inhibitory concentration (MIC) refers to the lowest peptide concentration that inhibits bacterial growth in wells with no visible bacterial growth. MIC was determined by micro-broth dilution. Bacteria were cultured overnight in 6 mL of Luria Broth (LB). […]

[6] = tested on: Gram-positive bacteria strains: MRSA, S. aureus, E. faecium, E. faecalis, S. pneumoniae, and B. subtilis; type: cell-based; conditions: span over MRSA, micro-broth dilution
Protocol: as §1, §4

N=C(N)NCCC[C@@H]1NC(=O)[C@H](C(c2ccccc2)c2ccccc2)NC(=O)[C@H](CCCNC(=N)N)NC(=O)[C@H](C(c2ccccc2)c2ccccc2)NC(=O)[C@H](CCCNC(=N)N)NC(=O)[C@H](C(c2ccccc2)c2ccccc2)NC(=O)[C@H](CCCNC(=N)N)NC(=O)[C@H](C(c2ccccc2)c2ccccc2)NC(=O)[C@H](CCCNC(=N)N)NC(=O)[C@H](C(c2ccccc2)c2ccccc2)NC1=O [[DipR]5] (cyclo([Dip]R[Dip]R[Dip]R[Dip]R[Dip]R))
MIC [1]: 25 µM (≈ 47.4 µg/mL) | MIC [2]: 0.39 µM (≈ 0.74 µg/mL) | degradation in plasma [3]: Approximately 15% | MIC [4]: 6.6 µM (≈ 12.5 µg/mL) | MIC (MRSA (ATCC BAA-1556)): 3.1 µM (≈ 5.88 µg/mL) | MIC (S. aureus (ATCC 29213)): 3.1 µM (≈ 5.88 µg/mL) | MIC values against Gram-positive and Gram-negative bacteria strains [5]: 0.39 to 25 µM | MIC values against Gram-positive bacteria strains [6]: 0.39 to 6.3 µM

Source: article PMC11763264, “Antibacterial and Antifungal Activities of Linear and Cyclic Peptides Containing Arginine, Tryptophan, and Diphenylalanine” (Antibiotics, 2025)
